This is an account of results in US9598440B2, “Inhibitors of IRAK4 activity” (MERCK SHARP & DOHME CORP., priority 2012, dated 2017).

Molecules are shown by their SMILES.

Chain of IRAK4 (Q9NWZ3 whole entry): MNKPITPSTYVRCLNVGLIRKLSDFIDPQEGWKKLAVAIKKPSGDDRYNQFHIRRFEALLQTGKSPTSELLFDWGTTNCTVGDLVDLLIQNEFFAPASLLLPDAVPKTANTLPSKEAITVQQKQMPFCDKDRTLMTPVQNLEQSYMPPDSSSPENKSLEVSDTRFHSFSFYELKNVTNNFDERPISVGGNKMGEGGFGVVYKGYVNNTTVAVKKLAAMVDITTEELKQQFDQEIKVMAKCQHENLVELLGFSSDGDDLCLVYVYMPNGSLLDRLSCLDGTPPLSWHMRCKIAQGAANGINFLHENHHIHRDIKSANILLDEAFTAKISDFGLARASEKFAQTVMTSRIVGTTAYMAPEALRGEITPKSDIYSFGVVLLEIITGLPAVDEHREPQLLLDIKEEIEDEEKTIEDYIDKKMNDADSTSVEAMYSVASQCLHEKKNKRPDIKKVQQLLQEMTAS

The test deals with IRAK4 (Homo sapiens (Human), UniProt Q9NWZ3). In words: Determination of IRAK4 kinase activity (IMAP fluorescence polarization, phosphorylation of fluorescent peptide substrate). In kind it is biochemical. Conditions: 0.5 nM GST tagged IRAK4, 100 nM peptide substrate RP7030, 100 μM ATP, 30 minutes at 25° C. Summed up:
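GST-tagged IRAK4 (0.5 nM) phosphorylated 100 nM fluorescent peptide substrate with 100 µM ATP in Tris-HCl pH 7.2, 1 mM MgCl2, 1 mM DTT, 0.01% Tween 20 for 30 min at 25 °C. Phosphorylation read by IMAP nanoparticle binding as fluorescence polarization increase.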
(Polarisation of emitted light reports the rotation of a fluorescent probe.)
With `Nc1ncc(-c2ccccn2)c(N[C@@H]2C[C@H](CO)[C@@H](O)[C@H]2O)n1` [Example 38, (1R,2S,3R,5R)-3-((2-amino-5-(pyridin-2-yl)pyrimidin-4-yl)amino)-5-(hydroxymethyl)cyclopentane-1,2-diol], the IC50 (commonly the concentration at which inhibition is half-maximal) was 623 nM.

With `CN(C)c1cccc(Nc2ncc(-c3nc4ccccc4s3)c(N[C@@H]3C[C@H](CO)[C@@H](O)[C@H]3O)n2)c1` [Example 39, (1R,2S,3R,5R)-3-((5-(benzo[d]thiazol-2-yl)-2-((3-(dimethylamino)phenyl)amino)pyrimidin-4-yl)amino)-5-(hydroxymethyl)cyclopentane-1,2-diol], the midpoint of inhibition, the IC50, lay at 8.9 nM.

The molecule `Cc1cc(Nc2ncc(-c3cncs3)c(N[C@@H]3C[C@H](CO)[C@@H](O)[C@H]3O)n2)cc(C)n1` [Example 40, (1R,2S,3R,5R)-3-((2-((2,6-dimethylpyridin-4-yl)amino)-5-(thiazol-5-yl)pyrimidin-4-yl)amino)-5-(hydroxymethyl)cyclopentane-1,2-diol] came in with a half-maximal inhibitory concentration (IC50) of 64 nM.

`Cc1cc(Nc2ncc(-c3cscn3)c(N[C@@H]3C[C@H](CO)[C@@H](O)[C@H]3O)n2)cc(C)n1` [Example 41, (1R,2S,3R,5R)-3-((2-((2,6-dimethylpyridin-4-yl)amino)-5-(thiazol-4-yl)pyrimidin-4-yl)amino)-5-(hydroxymethyl)cyclopentane-1,2-diol] returned a concentration for half-maximal inhibition (IC50) of 7.9 nM.

`OC[C@H]1C[C@@H](Nc2nc(Nc3ccc(OC(F)(F)F)cc3)ncc2-c2nc3ccccc3s2)[C@H](O)[C@@H]1O` [Example 42, (1R,2S,3R,5R)-3-((5-(benzo[d]thiazol-2-yl)-2-((4-(trifluoromethoxy)phenyl)amino)pyrimidin-4-yl)amino)-5-(hydroxymethyl)cyclopentane-1,2-diol]: it took 552 nM to reach half-maximal inhibition (IC50).

For `COc1ccc(Nc2ncc(-c3nc4ccccc4s3)c(N[C@@H]3C[C@H](CO)[C@@H](O)[C@H]3O)n2)cn1` [Example 43, (1R,2S,3R,5R)-3-((5-(benzo[d]thiazol-2-yl)-2-((6-methoxypyridin-3-yl)amino)pyrimidin-4-yl)amino)-5-(hydroxymethyl)cyclopentane-1,2-diol], the IC50 came out at 8.2 nM. Compared with the last molecule, the IC50 is about 67-fold lower.

Regarding `CN1CCN(c2ccc(Nc3ncc(-c4nc5ccccc5s4)c(N[C@@H]4C[C@H](CO)[C@@H](O)[C@H]4O)n3)cc2)CC1` [Example 44, (1R,2S,3R,5R)-3-((5-(benzo[d]thiazol-2-yl)-2-((4-(4-methylpiperazin-1-yl)phenyl)amino)pyrimidin-4-yl)amino)-5-(hydroxymethyl)cyclopentane-1,2-diol], inhibition was half-maximal at 3 nM (IC50).

With `CN1CCN(c2cccc(Nc3ncc(-c4nc5ccccc5s4)c(N[C@@H]4C[C@H](CO)[C@@H](O)[C@H]4O)n3)c2)CC1` [Example 45, (1R,2S,3R,5R)-3-((5-(benzo[d]thiazol-2-yl)-2-((3-(4-methylpiperazin-1-yl)phenyl)amino)pyrimidin-4-yl)amino)-5-(hydroxymethyl)cyclopentane-1,2-diol], the half-maximal inhibitory concentration (IC50) stood at 2.6 nM.

As to `Nc1ncc(-c2cc3ccccc3s2)c(N[C@@H]2C[C@H](CO)[C@@H](O)[C@H]2O)n1` [Example 46, (1R,2S,3R,5R)-3-((2-amino-5-(benzo[b]thiophen-2-yl)pyrimidin-4-yl)amino)-5-(hydroxymethyl)cyclopentane-1,2-diol], the IC50 came out at 1610 nM.

In the case of `OC[C@H]1C[C@@H](Nc2nc(Nc3ccc4[nH]ncc4c3)ncc2-c2nc3ccccc3s2)[C@H](O)[C@@H]1O` [Example 50, (1R,2S,3R,5R)-3-((2-((1H-indazol-5-yl)amino)-5-(benzo[d]thiazol-2-yl)pyrimidin-4-yl)amino)-5-(hydroxymethyl)cyclopentane-1,2-diol], the 50% inhibitory concentration (IC50) worked out at 6.5 nM.

Molecule `OC[C@H]1C[C@@H](Nc2nc(NC3CCNCC3)ncc2-c2nc3ccccc3s2)[C@H](O)[C@@H]1O` [Example 52, (1R,2S,3R,5R)-3-((5-(benzo[d]thiazol-2-yl)-2-(piperidin-4-ylamino)pyrimidin-4-yl)amino)-5-(hydroxymethyl)cyclopentane-1,2-diol] came in with a half-inhibitory concentration (IC50) of 687 nM.

Regarding `CN1CCC(Nc2ncc(-c3nc4ccccc4s3)c(N[C@@H]3C[C@H](CO)[C@@H](O)[C@H]3O)n2)CC1` [Example 53, (1R,2S,3R,5R)-3-((5-(benzo[d]thiazol-2-yl)-2-((1-methylpiperidin-4-yl)amino)pyrimidin-4-yl)amino)-5-(hydroxymethyl)cyclopentane-1,2-diol], the IC50 came out at 2650 nM. Compared with the last molecule, the IC50 is about 3.9-fold higher.

As for `OC[C@H]1C[C@@H](Nc2nc(NC3CNC3)ncc2-c2nc3ccccc3s2)[C@H](O)[C@@H]1O` [Example 54, (1R,2S,3R,5R)-3-((2-(azetidin-3-ylamino)-5-(benzo[d]thiazol-2-yl)pyrimidin-4-yl)amino)-5-(hydroxymethyl)cyclopentane-1,2-diol], the IC50 was found to be 736 nM.

With `OC[C@H]1C[C@@H](Nc2nc(NC3CCC3)ncc2-c2ccc3ccccc3n2)[C@H](O)[C@@H]1O` [Example 56, 2-(cyclobutylamino)-6-(((1R,2S,3R,4R)-2,3-dihydroxy-4-(hydroxymethyl)cyclopentyl)amino)-5-(quinolin-2-yl)pyrimidine], the IC50 came to 483 nM.

Regarding `OC[C@H]1C[C@@H](Nc2nc(NC3COC3)ncc2-c2ccc3ccccc3n2)[C@H](O)[C@@H]1O` [Example 57, 6-(((1R,2S,3R,4R)-2,3-dihydroxy-4-(hydroxymethyl)cyclopentyl)amino)-2-(oxetan-3-ylamino)-5-(quinolin-2-yl)pyrimidine], the IC50 was 10600 nM.

With `COc1cc(Nc2ncc(-c3ccc4ccccc4n3)c(N[C@@H]3C[C@H](CO)[C@@H](O)[C@H]3O)n2)ccn1` [Example 58, 6-(((1R,2S,3R,4R)-2,3-dihydroxy-4-(hydroxymethyl)cyclopentyl)amino)-2-((2-methoxypyridin-4-yl)amino)-5-(quinolin-2-yl)pyrimidine], 8 nM corresponded to half-maximal inhibition (IC50).

`Cc1cc(Nc2ncc(-c3ccc4ccccc4n3)c(N[C@@H]3C[C@H](CO)[C@@H](O)[C@H]3O)n2)cc(C)n1` [Example 59, 6-(((1R,2S,3R,4R)-2,3-dihydroxy-4-(hydroxymethyl)cyclopentyl)amino)-2-((2,6-dimethylpyridin-4-yl)amino)-5-(quinolin-2-yl)pyrimidine] came in with a 50% inhibitory concentration (IC50) of 1 nM. This IC50 is about 8-fold lower than that of the molecule before.

Take `OC[C@H]1C[C@@H](Nc2nc(NC3CC3)ncc2-c2ccc3ccccc3n2)[C@H](O)[C@@H]1O` [Example 60, 2-(cyclopropylamino)-6-(((1R,2S,3R,4R)-2,3-dihydroxy-4-(hydroxymethyl)cyclopentyl)amino)-5-(quinolin-2-yl)pyrimidine]: the IC50 came out at 1470 nM.

Consider `CC(C)Oc1cc(Nc2ncc(-c3ccc4ccccc4n3)c(N[C@@H]3C[C@H](CO)[C@@H](O)[C@H]3O)n2)ccn1` [Example 61, 6-(((1R,2S,3R,4R)-2,3-dihydroxy-4-(hydroxymethyl)cyclopentyl)amino)-2-((2-isopropoxypyridin-4-yl)amino)-5-(quinolin-2-yl)pyrimidine], for which the IC50 is 27 nM.

As to `CC(C)n1ccc(Nc2ncc(-c3ccc4ccccc4n3)c(N[C@@H]3C[C@H](CO)[C@@H](O)[C@H]3O)n2)cc1=O` [Example 62, 6-(((1R,2S,3R,4R)-2,3-dihydroxy-4-(hydroxymethyl)cyclopentyl)amino)-2-((1-isopropyl-2-oxo-1,2-dihydropyridin-4-yl)amino)-5-(quinolin-2-yl)pyrimidine], the 50% inhibitory concentration (IC50) turned out to be 154 nM.
